17 compounds from patent US12187723B2 (BRISTOL-MYERS SQUIBB COMPANY, priority 2019, dated 2025) can be followed below.

Test [1] addresses T1, human TLR8 (Homo sapiens, UniProt Q9NR97).
T1 construct: host or cells: HEK-Blue cells
T1 sequence (Q9NR97 27-1041): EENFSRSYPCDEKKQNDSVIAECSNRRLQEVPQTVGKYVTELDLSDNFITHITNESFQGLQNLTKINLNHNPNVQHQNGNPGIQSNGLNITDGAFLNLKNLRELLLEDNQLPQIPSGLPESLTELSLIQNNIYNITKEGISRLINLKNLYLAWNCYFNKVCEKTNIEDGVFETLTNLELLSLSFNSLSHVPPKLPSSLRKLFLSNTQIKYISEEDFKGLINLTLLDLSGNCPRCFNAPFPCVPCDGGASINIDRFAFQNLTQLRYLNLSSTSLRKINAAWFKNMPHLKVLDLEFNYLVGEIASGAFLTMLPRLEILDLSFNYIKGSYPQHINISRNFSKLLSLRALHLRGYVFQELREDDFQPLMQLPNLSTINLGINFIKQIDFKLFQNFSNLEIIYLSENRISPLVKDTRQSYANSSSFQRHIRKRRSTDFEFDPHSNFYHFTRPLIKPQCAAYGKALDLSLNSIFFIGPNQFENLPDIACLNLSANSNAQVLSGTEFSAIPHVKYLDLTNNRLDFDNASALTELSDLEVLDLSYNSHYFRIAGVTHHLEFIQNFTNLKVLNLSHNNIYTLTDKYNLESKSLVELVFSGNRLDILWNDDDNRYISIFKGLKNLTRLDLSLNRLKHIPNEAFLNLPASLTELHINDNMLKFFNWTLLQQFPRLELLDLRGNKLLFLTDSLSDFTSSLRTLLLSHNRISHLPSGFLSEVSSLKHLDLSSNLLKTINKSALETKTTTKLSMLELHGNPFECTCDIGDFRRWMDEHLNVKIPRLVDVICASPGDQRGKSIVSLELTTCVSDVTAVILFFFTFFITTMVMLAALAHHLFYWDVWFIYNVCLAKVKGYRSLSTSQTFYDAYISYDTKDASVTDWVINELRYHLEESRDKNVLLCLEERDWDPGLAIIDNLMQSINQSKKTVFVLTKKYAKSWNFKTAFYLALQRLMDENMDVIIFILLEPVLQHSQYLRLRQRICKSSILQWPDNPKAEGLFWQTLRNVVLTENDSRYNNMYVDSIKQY
The test can be described thus: TLR8 inhibition reporter assay (HEK-Blue SEAP). The format is cell-based. The following applies: HEK-Blue cells overexpressing human TLR8, R848 15.9 μM, 22 hour incubation. Summed up:
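Screening used HEK-Blue cells overexpressing one human TLR (7, 8 or 9) and an IFN-β minimal promoter–NF-κB/AP-1 SEAP construct. Stimulation lasted 22 h at 37 °C with receptor-specific agonist: gardiquimod, R848 or ODN2006 at 7.5 μM, 15.9 μM and 5 nM.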

The target of test [2] is T2, human TLR7 (Homo sapiens, UniProt Q9NYK1).
T2 construct: host or cells: HEK-Blue cells
T2 sequence (Q9NYK1 27-1049): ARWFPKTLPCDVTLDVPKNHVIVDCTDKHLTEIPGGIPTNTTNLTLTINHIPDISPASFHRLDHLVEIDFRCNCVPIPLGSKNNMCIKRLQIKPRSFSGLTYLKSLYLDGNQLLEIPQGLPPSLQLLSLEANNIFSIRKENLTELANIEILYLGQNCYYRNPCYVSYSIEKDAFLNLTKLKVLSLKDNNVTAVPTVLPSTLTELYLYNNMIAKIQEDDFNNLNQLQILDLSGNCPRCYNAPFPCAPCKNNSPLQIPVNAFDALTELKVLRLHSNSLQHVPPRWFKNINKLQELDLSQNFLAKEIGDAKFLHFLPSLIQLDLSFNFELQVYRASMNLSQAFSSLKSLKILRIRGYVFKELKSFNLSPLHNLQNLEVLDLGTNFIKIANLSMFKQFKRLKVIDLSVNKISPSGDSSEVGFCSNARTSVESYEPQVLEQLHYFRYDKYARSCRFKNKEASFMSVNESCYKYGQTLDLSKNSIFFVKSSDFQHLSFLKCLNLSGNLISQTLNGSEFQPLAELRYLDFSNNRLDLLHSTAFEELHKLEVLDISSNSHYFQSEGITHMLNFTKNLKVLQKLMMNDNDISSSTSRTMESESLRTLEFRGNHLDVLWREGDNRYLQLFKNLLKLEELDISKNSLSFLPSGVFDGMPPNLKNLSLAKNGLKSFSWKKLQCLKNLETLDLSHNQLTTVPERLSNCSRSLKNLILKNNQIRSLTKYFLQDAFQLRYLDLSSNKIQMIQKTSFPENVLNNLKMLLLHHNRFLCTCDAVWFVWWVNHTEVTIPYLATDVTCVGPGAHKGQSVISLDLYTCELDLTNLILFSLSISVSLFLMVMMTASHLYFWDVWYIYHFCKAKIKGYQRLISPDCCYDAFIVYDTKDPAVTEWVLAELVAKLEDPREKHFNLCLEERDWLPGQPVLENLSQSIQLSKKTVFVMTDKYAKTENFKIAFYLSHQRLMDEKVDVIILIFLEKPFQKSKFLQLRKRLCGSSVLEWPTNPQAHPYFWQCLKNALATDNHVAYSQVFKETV
The test can be described thus: TLR7 inhibition reporter assay (HEK-Blue SEAP). The format is cell-based. The conditions noted are these: HEK-Blue cells overexpressing human TLR7, gardiquimod 7.5 μM, 22 hour incubation. An outline of the steps:
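Dose-response testing from 0.05 nM to 50 μM final was done on reporter cells for 22 hours at 37° C. Secreted SEAP was then detected, and inhibition was calculated as percent reduction of the agonist-plus-DMSO signal compared with wells given a known inhibitor.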
Background: A reporter such as luciferase makes a cellular process visible.

By IC50 is commonly meant the concentration needed to halve the response being measured. For the compound `Cc1cc(-c2ccc3c(c2)[nH]c(=O)n3C2CCN(C)CC2)cn2ncnc12` [Example 4, 5-(8-methyl-[1,2,4]triazolo[1,5-a]pyridin-6-yl)-1-(1-methylpiperidin-4-yl)-1,3-dihydro-2H-benzo[d]imidazol-2-one], the IC50 in test [1] was 1.28 µM; in test [2], 0.863 µM.
Regarding `CCN1CCC[C@@H](n2c(=O)[nH]c3cc(-c4cc(OC)c5ncnn5c4)c(C(C)C)cc32)C1` (single isomer, unassigned) [Example 144], the IC50 in test [1] came out at 0.00502 µM; in test [2], 0.00858 µM.
As for `Cc1cc(-c2cc(C)c3ncnn3c2)cc2[nH]c(=O)n(C3CCN(C(C)C)CC3)c12` [Example 107, 1-(1-isopropylpiperidin-4-yl)-7-methyl-5-(8-methyl-[1,2,4]triazolo[1,5-a]pyridin-6-yl)-1,3-dihydro-2H-benzo[d]imidazol-2-one], the IC50 in test [1] worked out at 0.249 µM; in test [2], 0.0329 µM.
As for `Cc1cc(-c2cc(C)c3ncnn3c2)cc2[nH]c(=O)n(C3CCN(C)CC3)c12` [Example 106, 7-methyl-5-(8-methyl-[1,2,4]triazolo[1,5-a]pyridin-6-yl)-1-(1-methylpiperidin-4-yl)-1,3-dihydro-2H-benzo[d]imidazol-2-one], the IC50 in test [1] amounted to 0.15 µM; in test [2], 0.0297 µM.
With `CCc1cc2c(cc1-c1cc(OC)c3ncnn3c1)[nH]c(=O)n2[C@H]1CC[C@@H](NC2CCOCC2)CC1` [Example 166, 6-ethyl-5-(8-methoxy-[1,2,4]triazolo[1,5-a]pyridin-6-yl)-1-((1s,4s)-4-((tetrahydro-2H-pyran-4-yl)amino)cyclohexyl)-1,3-dihydro-2H-benzo[d]imidazol-2-one], the IC50 was 0.00054 µM in test [1] and 0.0019 µM in test [2].
In the same order, the values of `Cc1cc2c(cc1-c1cc(C)c3ncnn3c1)[nH]c(=O)n2[C@@H]1CCCN(CC(N)=O)C1` [Example 94, (R)-2-(3-(6-methyl-5-(8-methyl-[1,2,4]triazolo[1,5-a]pyridin-6-yl)-2-oxo-2,3-dihydro-1H-benzo[d]imidazol-1-yl)piperidin-1-yl)acetamide] are 0.339 µM and 0.704 µM.
The corresponding values for `COCCN1CCC[C@@H](n2c(=O)[nH]c3cc(-c4cc(C)c5ncnn5c4)c(C)cc32)C1` [Example 97, (R)-1-(1-(2-methoxyethyl)piperidin-3-yl)-6-methyl-5-(8-methyl-[1,2,4]triazolo[1,5-a]pyridin-6-yl)-1,3-dihydro-2H-benzo[d]imidazol-2-one] are 0.0437 µM and 0.0388 µM.
For the compound `COc1cc(-c2cc3[nH]c(=O)n([C@@H]4CCCN(CC(C)C)C4)c3cc2C(C)C)cn2ncnc12` [Example 141, (R)-1-(1-isobutylpiperidin-3-yl)-6-isopropyl-5-(8-methoxy-[1,2,4]triazolo[1,5-a]pyridin-6-yl)-1,3-dihydro-2H-benzo[d]imidazol-2-one], the figures for the IC50 in test [1] and in test [2] were 0.00056 µM and 0.00012 µM, respectively.
For `Cc1cc2c(cc1-c1cc(C)c3ncnn3c1)[nH]c(=O)n2[C@H]1CCCN(C(=O)CN(C)C)C1` [Example 103, (S)-1-(1-(dimethylglycyl)piperidin-3-yl)-6-methyl-5-(8-methyl-[1,2,4]triazolo[1,5-a]pyridin-6-yl)-1,3-dihydro-2H-benzo[d]imidazol-2-one], the IC50 in test [1] is 0.205 µM; in test [2] it was 0.215 µM.
On to `COc1cc(-c2cc3[nH]c(=O)n([C@@H]4CCCN(CC(C)(C)C)C4)c3cc2C(C)C)cn2ncnc12` [Example 153, (R)-6-isopropyl-5-(8-methoxy-[1,2,4]triazolo[1,5-a]pyridin-6-yl)-1-(1-neopentylpiperidin-3-yl)-1,3-dihydro-2H-benzo[d]imidazol-2-one], for which the IC50 in test [1] was determined as 0.00227 µM; in test [2] it was 0.00058 µM.
In the same order, the values of `COc1cc(-c2cc3[nH]c(=O)n(C4CCCN(C(=O)CN(C)C)C4)c3cc2C)cn2ncnc12` (stereo not shown) [Example 105, 1-(1-(dimethylglycyl)piperidin-3-yl)-5-(8-methoxy-[1,2,4]triazolo[1,5-a]pyridin-6-yl)-6-methyl-1,3-dihydro-2H-benzo[d]imidazol-2-one] are 0.318 µM and 0.399 µM.
The corresponding values for `COc1cc(-c2cc3[nH]c(=O)n([C@H]4CCCN(CCC(C)C)C4)c3cc2C(C)C)cn2ncnc12` [Example 132, (S)-1-(1-isopentylpiperidin-3-yl)-6-isopropyl-5-(8-methoxy-[1,2,4]triazolo[1,5-a]pyridin-6-yl)-1,3-dihydro-2H-benzo[d]imidazol-2-one] are 0.0101 µM and 0.0183 µM.
The corresponding values for `COc1cc(-c2cc3[nH]c(=O)n(C4CCN(C(C)C)CC4)c3cc2C)cn2ncnc12` [Example 10, 1-(1-isopropylpiperidin-4-yl)-5-(8-methoxy-[1,2,4]triazolo[1,5-a]pyridin-6-yl)-6-methyl-1,3-dihydro-2H-benzo[d]imidazol-2-one] are 0.0897 µM and 0.0632 µM.
As for `COc1cc(-c2cc3[nH]c(=O)n(C4CCN(C5CCOCC5)CC4)c3cc2C(C)C)cn2ncnc12` [Example 158, 6-isopropyl-5-(8-methoxy-[1,2,4]triazolo[1,5-a]pyridin-6-yl)-1-(1-(tetrahydro-2H-pyran-4-yl)piperidin-4-yl)-1,3-dihydro-2H-benzo[d]imidazol-2-one], the IC50 was determined as 0.0162 µM in test [1] and 0.0112 µM in test [2].
As to `COc1cc(-c2cc3[nH]c(=O)n(C4CCN(C(=O)CN(C)C)CC4)c3cc2C)cn2ncnc12` [Example 100, 1-(1-(2-(dimethylamino)acetyl)piperidin-4-yl)-5-(8-methoxy-[1,2,4]triazolo[1,5-a]pyridin-6-yl)-6-methyl-1H-benzo[d]imidazol-2(3H)-one], the values for the IC50 in test [1] and in test [2] were 0.175 µM and 0.548 µM, respectively.
The corresponding values for `CCCN1CCC[C@H](n2c(=O)[nH]c3cc(-c4cc(OC)c5ncnn5c4)c(C(C)C)cc32)C1` [Example 121, (S)-6-isopropyl-5-(8-methoxy-[1,2,4]triazolo[1,5-a]pyridin-6-yl)-1-(1-propylpiperidin-3-yl)-1,3-dihydro-2H-benzo[d]imidazol-2-one] are 0.00182 µM and 0.0286 µM.
As for `COc1cc(-c2cc3[nH]c(=O)n([C@@H]4CCCN(CC(C)(C)C)C4)c3cc2C(F)(F)F)cn2ncnc12` [Example 116, (R)-5-(8-methoxy-[1,2,4]triazolo[1,5-a]pyridin-6-yl)-1-(1-neopentylpiperidin-3-yl)-6-(trifluoromethyl)-1,3-dihydro-2H-benzo[d]imidazol-2-one], the IC50 in test [1] was 0.0578 µM; in test [2], 0.0441 µM.
